This is an account of results in patent US20090022726A1, “METHOD OF USING IL6 ANTAGONISTS WITH PROTEASOME INHIBITORS” (priority 2005, published 2009).

“Also recorded” adds a separate entry of the source. Some results are limits rather than exact numbers.

The subject of data set [1] is IL-6-independent myeloma cell line RPMI 8226. As to the kind of experiment: ELISA-based apoptosis assay, antibody and bortezomib. It counts as cell-based. The conditions noted are these: RPMI 8226, data not shown. For orientation: ELISA stands for enzyme-linked immunosorbent assay.
Data set [2] has as its system ANBL-6 cells. As to the kind of experiment: WST-1 cell viability, antibody combined with bortezomib. Format: cell-based. The protocol:
(§1) ANBL-6 and KAS-6 cells (Dr. Diane Jelinek, Mayo Clinic, Rochester, Minn.) were incubated with increasing concentrations of CNTO 328 or the isotype control antibody, F105, for 24 and 48 hours. For the last 4 hours, the cells were incubated in the presence of WST-1 (Roche Applied Science, Indianapolis, Ind.). Reduction of WST-1 into a water soluble formazan salt by viable cells was measured at an absorbance of 450 nm using an ELISA plate reader. Viability was measured as percent viability relative to untreated cells. All cells were treated in RPMI 1640 media containing 10% FBS and 1 ng/mL of IL-6.
(§2) The ANBL-6, KAS-6, or IL-6-independent RPMI 8226 myeloma cell lines were pre-incubated with 0.1 mcg/ml (KAS-6) or 10 mcg/ml (ANBL-6 and RPMI 8226) of the control antibody, F105, or CNTO 328 for 24 hours, followed by co-incubation with either DMSO control or increasing concentrations of bortezomib in the continued presence of F105 or CNTO 328 for another 24 hours. For sequencing experiments, ANBL-6 cells were treated with: 1) F105 or CNTO 328 for 24 hours followed by F105 or CNTO 328 and bortezomib 5 nM for another 24 hours (antibody→bortezomib); 2) F105 or CNTO 328 and bortezomib 5 nM concurrently for 24 hours (antibody+bortezomib), or bortezomib at 5 nM for 12 hours followed by F105 or CNTO 328 for 24 hours (bortezomib→antibody). Cell viability was assayed as described above and measured as percent viability relative to untreated cells. All cells were treated in RPMI 1640 media containing 10% FBS and 1 ng/mL of IL-6. Columns, mean of quintuplicate cultures; bars, SEM.

Data set [3] deals with KAS-6 cells. Described as above. The following applies: KAS-6, 0.1 mcg/ml antibody pre-incubated 24 hours, then bortezomib 24 hours; relative to control antibody F105. Format: cell-based. The protocol: as §1, §2
Data set [4] relates to IL-6-independent RPMI 8226 myeloma cell line. Described as above. It counts as cell-based. The following applies: RPMI 8226, 10 mcg/ml antibody pre-incubated 24 hours, then bortezomib 24 hours. The protocol:
as §1, §2

Data set [5] relates to ANBL-6 cells. As to the kind of experiment: ELISA-based apoptosis assay (mono- and oligo-nucleosomes), antibody and bortezomib. It counts as cell-based. The conditions noted are these: ANBL-6, 10 mcg/ml CNTO 328 with bortezomib, 8 hours. The protocol:
(§3) ANBL-6 and KAS-6 cells were incubated with 10 mcg/ml (ANBL-6) or 1 mcg/ml (KAS-6) of CNTO 328 or the control antibody, F105, for 8 (ANBL-6) to 12 (KAS-6) hours. Apoptosis was determined using an ELISA-based assay that measures the presence of mono- and oligo-nucleosomes (Roche Applied Science, Indianapolis, Ind.) and expressed as a fold increase in apoptosis over DMSO and F105-treated controls. Cells were treated in RPMI 1640 media containing 10% FBS and 1 ng/mL of IL-6 (FIGS. 3 A and B, column height represents the mean of triplicate cultures; bars, SEM).

Data set [6] deals with KAS-6 cells. Described as above. Format: cell-based. The conditions noted are these: KAS-6, 1 mcg/ml CNTO 328 with bortezomib, 12 hours. As to the method:
as §3

In data set [7] the test system is ANBL-6 cells. As to the kind of experiment: WST-1 cell viability, antibody alone. Format: cell-based. The following applies: increasing concentrations, 24 and 48 hours, 1 ng/mL of IL-6. As to the method: as §1
A general note: Tetrazolium assays rely on reduction of a dye to a coloured formazan, in cell work by metabolically active cells.

For data set [8], the system named is KAS-6 cells. As to the kind of experiment: WST-1 cell viability, antibody alone. It counts as cell-based. The conditions noted are these: increasing concentrations, 24 and 48 hours, 1 ng/mL of IL-6. The protocol: as §1
Data set [9] concerns IL-6 signaling, HSP-70 and MKP-1 in ANBL-6 cells. As to the kind of experiment: Immunoblot analysis of IL-6 signaling, HSP-70 and MKP-1 with densitometry. Format: cell-based. As to the method:
ANBL-6 cells were incubated with 10 mcg/ml of CNTO 328 or the control antibody, F105, with or without increasing concentrations of bortezomib for 8 hours. Cell lysates were prepared and subjected to immunoblot analysis. Blots were stripped and probed for HSC-70 to ensure equal protein loading per lane. Densitometry was performed on HSP-70 and MKP-1 immunoblots.
On the technique in general: A western blot detects proteins with antibodies after separation by electrophoresis.

For data set [10], the system named is IL-6 signaling in KAS-6 cells. As to the kind of experiment: Down-regulation of IL-6 signaling (phospho-protein levels). It counts as cell-based.
Data set [11] deals with KAS-6 cells. As to the kind of experiment: Apoptosis, KNK437 with bortezomib. It counts as cell-based.
Another data set deals with HSF-1 knockout MEFs. As to the kind of experiment: Apoptosis assay, KNK437 with bortezomib. It counts as cell-based, mouse. The following applies: 24 hours. The protocol:
as §3
(§4) ANBL-6 or MEF cells (control and HSF-1−/−) were incubated with either DMSO control or increasing concentrations of bortezomib and KNK437 for 12 (ANBL-6) to 24 hours (MEFs). Apoptosis was determined as described above and expressed as a fold increase in apoptosis over DMSO-treated controls. ANBL-6 cells were treated in RPMI 1640 media containing 10% FBS and 1 ng/mL of IL-6 (FIG. 5, columns, mean of triplicate cultures; bars, SEM).

Data set [12] deals with ANBL-6 cells. As to the kind of experiment: Apoptosis assay, KNK437 with bortezomib. The conditions noted are these: ANBL-6, KNK437 with bortezomib, 12 hours, compared with control treated cells. Format: cell-based. The protocol:
as §3, §4

The test system of data set [13] is normal mouse embryo fibroblasts (MEFs). As to the kind of experiment: Apoptosis assay, KNK437 with bortezomib. Format: cell-based. The conditions noted are these: normal (HSF-1+/+) MEFs, 24 hours. As to the method: as §3, §4
Data set [14] deals with refractory or relapsed myeloma. The following applies: refractory or relapsed disease, initial phase II clinical trial (Richardson et al. 2003); cited from earlier work.
Another data set concerns proteasome. The following applies: over human leukocyte elastase, cathepsin G, chymotrypsin and thrombin; cited from earlier work.
Where [15] appears, read: 10 mcg/ml CNTO 328 with bortezomib, 8 hours, densitometry.
Where [16] appears, read: CNTO 328 with bortezomib, immunoblot.

Take “CNTO 328: chimeric monoclonal IL-6 neutralizing antibody”: the potentiation of apoptosis entry in data set [1] is “not able to potentiate apoptosis”. Moreover, the “effect on cytotoxicity of bortezomib (cell viability)” value in the data set with ANBL-6 cells [2] (ANBL-6, 10 mcg/ml antibody pre-incubated 24 hours, then bortezomib 24 hours, relative to control antibody F105) was “potentiated the cytotoxicity of bortezomib”; in the data set on KAS-6 cells [3], “potentiated the cytotoxicity of bortezomib”. The “effect on cytotoxicity of bortezomib, sequencing” value is listed as “enhanced the cytotoxicity of bortezomib most” in the data set with ANBL-6 cells [2] (ANBL-6, antibody 24 hours followed by antibody and bortezomib 5 nM 24 hours (antibody→bortezomib)); “enhanced the cytotoxicity of bortezomib most” in the data set with ANBL-6 cells [2] (ANBL-6, antibody and bortezomib 5 nM concurrently for 24 hours (antibody+bortezomib)); “little additional effect” in the data set on ANBL-6 cells [2] (ANBL-6, bortezomib 5 nM 12 hours followed by antibody 24 hours (bortezomib→antibody)). Further, the “effect on activity of bortezomib (cell viability)” value in [4] is on record as “did not enhance the activity of bortezomib”. Besides, the “induction of apoptosis (fold increase over DMSO and F105-treated controls)” value in the data set with ANBL-6 cells [5] and in the data set on KAS-6 cells [6] was “enhanced induction of apoptosis; also recorded: greater than the sum of the two individual agents alone” throughout. For the same molecule, the “cell viability (percent viability relative to untreated cells)” value is “dose- and time-dependent reduction in cell viability” with ANBL-6 cells [7]; “dose- and time-dependent reduction in cell viability” in the data set on KAS-6 cells [8]. Further, in data set [9] (setting [15]), the “decrease of bortezomib-mediated induction of HSP-70” value amounted to 45%. In addition, in [9] (setting [15]), the “decrease of bortezomib-mediated induction of MKP-1” value was determined as 90%. Further, the “levels of phospho-STAT-3” value in data set [9] (8 hours, immunoblot) is reported as “reduction in levels”. For the same molecule, the “levels of phospho-p42/44 MAPK” value in data set [9] (8 hours, immunoblot) was “reduction in levels”. Also, the “levels of hyperphosphorylated HSF-1” value in data set [9] (setting [16]) is given as “decreased levels”. Moreover, the “levels of transcriptionally active phospho-STAT-1” value in data set [9] (setting [16]) is on record as “decreased levels”. Besides, in [10], the “phospho-STAT-3 and phospho-p42/44 MAPK levels” value is given as “marked decrease”.

Regarding `O=CN1CC/C(=C\c2ccc3c(c2)OCO3)C1=O` [KNK437], the “apoptotic activity of bortezomib” value with KAS-6 cells [11] is on record as “enhanced the apoptotic activity of bortezomib”. Further, the “synergistic activity with bortezomib (apoptosis)” value with HSF-1 knockout MEFs was “blunted”; in [13], “reproduced”. In the data set on ANBL-6 cells [12], the “bortezomib-mediated apoptosis (fold increase over DMSO-treated controls)” value is “significant increase in bortezomib-mediated apoptosis”.

As to `CC(C)C[C@H](NC(=O)[C@H](Cc1ccccc1)NC(=O)c1cnccn1)B(O)O` [bortezomib, reference compound], the “patients with partial responses or better” value in data set [14] is on record as 27%. In addition, the “selectivity for the proteasome over other serine proteases” value in the data set on proteasome is recorded as greater than 500 fold. Besides, in data set [9] (8 hours, immunoblot), the “levels of phospho-STAT-3” value is on record as “decreased levels” and the “levels of phospho-p42/44 MAPK” value is given as “decreased levels”.
